42 molecules from US12624034B2, “Non-covalent modifiers of AKT1 and uses thereof” (Terremoto Biosciences, Inc., priority 2023, dated 2026) can be followed below.

For assay [1], the target named is T1, AKT1 WT (Homo sapiens, UniProt P31749).
T1 construct: expressed in transfected cells; host or cells: HEK293
The experiment in a line: Live cell AKT1 WT target engagement by NanoBRET competitive probe displacement in HEK293 cells. In kind it is binding. The following applies: 2 h at 37° C., read-out: AKT1 WT IC50. (In general: Bioluminescence resonance energy transfer reports proximity on the nanometre scale.)

Assay [2] concerns the target T2, AKT2 (Homo sapiens, UniProt P31751).
T2 construct: expressed in transfected cells; host or cells: HEK293
The experiment in a line: Live cell AKT2 target engagement by NanoBRET competitive probe displacement in HEK293 cells. The class given is binding. To be noted: 2 h at 37° C., read-out: AKT2 IC50.

Setting [3] is: NanoBRET live cell target engagement, HEK293 cells.
[4] abbreviates: NanoBRET competitive probe displacement, live HEK293 cells.

Like-named read-outs stand apart in the source and are kept apart here.

T2 sequence (P31751 whole entry): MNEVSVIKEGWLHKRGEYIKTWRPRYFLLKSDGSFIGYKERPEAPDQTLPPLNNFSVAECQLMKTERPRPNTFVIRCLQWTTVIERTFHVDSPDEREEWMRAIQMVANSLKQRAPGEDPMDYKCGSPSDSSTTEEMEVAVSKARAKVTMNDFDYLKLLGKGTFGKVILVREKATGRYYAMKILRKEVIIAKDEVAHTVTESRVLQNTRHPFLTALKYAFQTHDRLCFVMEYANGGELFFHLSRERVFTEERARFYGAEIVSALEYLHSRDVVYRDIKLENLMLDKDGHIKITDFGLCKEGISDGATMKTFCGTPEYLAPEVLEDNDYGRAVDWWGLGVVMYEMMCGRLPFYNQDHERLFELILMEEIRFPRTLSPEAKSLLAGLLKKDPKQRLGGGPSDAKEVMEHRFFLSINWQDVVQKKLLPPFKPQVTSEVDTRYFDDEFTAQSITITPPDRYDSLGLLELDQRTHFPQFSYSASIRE
T1 sequence (P31749 whole entry): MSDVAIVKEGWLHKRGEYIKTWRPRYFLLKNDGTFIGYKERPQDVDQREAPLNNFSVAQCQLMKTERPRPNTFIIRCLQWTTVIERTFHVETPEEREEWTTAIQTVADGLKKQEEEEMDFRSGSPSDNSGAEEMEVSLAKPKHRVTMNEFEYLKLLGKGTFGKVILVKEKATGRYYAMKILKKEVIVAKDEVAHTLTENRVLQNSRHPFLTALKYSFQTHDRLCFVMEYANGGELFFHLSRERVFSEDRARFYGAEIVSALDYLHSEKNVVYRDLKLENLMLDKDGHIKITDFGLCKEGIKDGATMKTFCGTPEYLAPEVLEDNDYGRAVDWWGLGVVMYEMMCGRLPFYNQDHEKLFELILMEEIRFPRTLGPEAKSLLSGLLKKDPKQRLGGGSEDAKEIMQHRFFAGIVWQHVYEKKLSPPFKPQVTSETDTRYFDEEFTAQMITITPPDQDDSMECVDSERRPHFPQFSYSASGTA

For orientation: IC50 means the concentration that gives 50% inhibition. Turning to `Cc1ccc(CN[C@H]2CCc3cc(-n4c(-c5cccnc5N)nc5ccc(-n6cccn6)nc54)ccc32)cn1` [Compound 70], the values for the IC50 in assay [1] (setting [3]) and in assay [2] (setting [3]) were 0.0494 µM and 0.576 µM, respectively.

Take `Nc1ncccc1-c1nc2ccc(-n3cccn3)nc2n1-c1ccc2c(c1)CC[C@@H]2NC1CCN(C(=O)C2CCC2)CC1` [Compound 422]: the IC50 in assay [1] (setting [4]) stood at 0.0679 µM; in assay [2] (setting [4]), 2.08 µM.

With `Nc1ncccc1-c1nc2ccc(-n3cccn3)nc2n1-c1ccc2c(c1)CC[C@@H]2NC(=O)c1cc2n(n1)CCC2` [Compound 173], the IC50 in assay [1] (setting [3]) stood at 0.0302 µM; in assay [2] (setting [3]), 0.226 µM.

In the case of `Cc1ccc(C(=O)N[C@H]2CCc3cc(-n4c(-c5cccnc5N)nc5cc(F)c(-n6nccn6)nc54)ccc32)cn1` [Compound 466], the IC50 was 0.0259 µM in assay [1] (setting [4]) and 1.57 µM in assay [2] (setting [4]).

For the molecule `COc1cc(C(=O)N[C@H]2CCc3cc(-n4c(-c5cccnc5N)nc5ccc(-n6cccn6)nc54)ccc32)nn1C(F)F` [Compound 324], the IC50 came out at 0.0231 µM in assay [1] (setting [3]) and 0.502 µM in assay [2] (setting [3]).

On to `Nc1ncccc1-c1nc2ccc(-n3cccn3)nc2n1-c1ccc2c(c1)CC[C@@H]2NC1CCN(C(=O)C2CC2)CC1F` (stereo partly drawn) [Compound 443], for which the figures for the IC50 in assay [1] (setting [4]) and in assay [2] (setting [4]) were 0.0232 µM and 0.94 µM, respectively.

Take `Nc1ncccc1-c1nc2ccc(-n3cccn3)nc2n1-c1ccc2c(c1)CC[C@@H]2NC(=O)c1cnc2c(c1)CCC2(F)F` [Compound 66]: the IC50 was 0.00895 µM in assay [1] (setting [3]) and 0.015 µM in assay [2] (setting [3]).

On to `CN(C)Cc1cn([C@H]2CCc3cc(-n4c(-c5cccnc5N)nc5ccc(-n6cccn6)nc54)ccc32)nn1` [Compound 218], for which the IC50 in assay [1] (setting [3]) was 0.643 µM; in assay [2] (setting [3]) it was 4.4 µM.

As to `Nc1ncccc1-c1nc2ccc(-n3nccn3)nc2n1-c1ccc2c(c1)CC[C@@H]2NC(=O)c1cnns1` [Compound 436], the IC50 in assay [1] (setting [4]) is 0.04 µM; in assay [2] (setting [4]), 4.66 µM.

In the case of `Nc1ncccc1-c1nc2ccc(-n3cccn3)nc2n1-c1ccc2c(c1)CC[C@@H]2NC(=O)c1ccc2nccn2n1` [Compound 236], the IC50 in assay [1] (setting [3]) turned out to be 0.0121 µM; in assay [2] (setting [3]), 0.158 µM.

As for `Cc1ccc(C(=O)N[C@H]2CCc3cc(-n4c(-c5cccnc5N)nc5ccc(-n6ncnc6C6CC6)nc54)ccc32)cn1` [Compound 420], the IC50 was found to be 0.336 µM in assay [1] (setting [4]) and 3.1 µM in assay [2] (setting [4]).

As to `CCc1ccc(C(=O)N[C@H]2CCc3cc(-n4c(-c5cccnc5N)nc5ccc(-n6cccn6)nc54)ccc32)cn1` [Compound 80], the IC50 in assay [1] (setting [3]) came to 0.00865 µM; in assay [2] (setting [3]), 0.0284 µM.

With `Nc1ncccc1-c1nc2ccc(-n3cccn3)nc2n1-c1ccc2c(c1)CC[C@@H]2NC1CCc2cc(O)ccc21` (stereo partly drawn) [Compound 498], the IC50 in assay [1] (setting [4]) was 0.043 µM; in assay [2] (setting [4]), 0.62 µM.

For `Cc1nc2ncccc2c(=O)n1[C@H]1CCc2cc(-n3c(-c4cccnc4N)nc4ccc(-n5cccn5)nc43)ccc21` [Compound 180], the IC50 in assay [1] (setting [3]) was 0.0918 µM; in assay [2] (setting [3]), 1.15 µM.

For `Nc1ncccc1-c1nc2ccc(-n3cccn3)nc2n1-c1ccc2c(c1)CC[C@@H]2NC(=O)Nc1ccccc1` [Compound 133], the IC50 in assay [1] (setting [3]) came to 0.0762 µM; in assay [2] (setting [3]) it was 1.34 µM.

Regarding `CS(=O)(=O)Nc1ccc(C(=O)N[C@H]2CCc3cc(-n4c(-c5cccnc5N)nc5ccc(-n6cccn6)nc54)ccc32)cn1` [Compound 231], the figures for the IC50 in assay [1] (setting [3]) and in assay [2] (setting [3]) were 0.504 µM and 3.87 µM, respectively.

As to `CN1CC(Oc2cc(C(=O)N[C@H]3CCc4cc(-n5c(-c6cccnc6N)nc6ccc(-n7cccn7)nc65)ccc43)ccn2)C1` [Compound 179], the IC50 came out at 0.08 µM in assay [1] (setting [3]) and 1.27 µM in assay [2] (setting [3]).

`Nc1ncccc1-c1nc2ccc(-n3ccc(C4COC4)n3)nc2n1-c1ccc2c(c1)CC[C@@H]2NC1CCN(C(=O)C2CC2)CC1` [Compound 597]: the values for the IC50 in assay [1] (setting [4]) and in assay [2] (setting [4]) were 0.0661 µM and 3.78 µM, respectively.

For the molecule `COc1ccn(-c2ccc3nc(-c4cccnc4N)n(-c4ccc5c(c4)CC[C@@H]5NC4CCN(C(=O)C5CC5)CC4F)c3n2)n1` (stereo partly drawn) [Compound 512], the IC50 is 0.0197 µM in assay [1] (setting [4]) and 0.409 µM in assay [2] (setting [4]).

`Nc1ncccc1-c1nc2ccc(-n3nccn3)nc2n1-c1ccc2c(c1)CC[C@@H]2NCc1ccc(C(F)F)nc1` [Compound 234]: the values for the IC50 in assay [1] (setting [3]) and in assay [2] (setting [3]) were 0.168 µM and 4.55 µM, respectively.

Turning to `Cc1cc2ncn([C@H]3CCc4cc(-n5c(-c6cccnc6N)nc6ccc(-n7cccn7)nc65)ccc43)c(=O)c2cn1` [Compound 91, (S)-3-(5-(2-(2-aminopyridin-3-yl)-5-(1H-pyrazol-1-yl)-3H-imidazo[4,5-b]pyridin-3-yl)-2,3-dihydro-1H-inden-1-yl)-7-methylpyrido[4,3-d]pyrimidin-4(3H)-one], the IC50 worked out at 0.198 µM in assay [1] (setting [3]) and 0.763 µM in assay [2] (setting [3]).

`Nc1ncccc1-c1nc2ccc(-n3cccn3)nc2n1-c1ccc2c(c1)CC[C@@H]2NC(=O)c1ccnc2c1OC(F)(F)O2` [Compound 317]: the IC50 came out at 0.131 µM in assay [1] (setting [3]) and 1.73 µM in assay [2] (setting [3]).

Take `N#Cc1cc(-n2cccn2)nc2c1nc(-c1cccnc1N)n2-c1ccc2c(c1)CC[C@@H]2NC(=O)c1ccc(C(F)F)nc1` [Compound 123, (S)—N-(5-(2-(2-aminopyridin-3-yl)-7-cyano-5-(1H-pyrazol-1-yl)-3H-imidazo[4,5-b]pyridin-3-yl)-2,3-dihydro-1H-inden-1-yl)-6-(difluoromethyl)nicotinamide]: the IC50 in assay [1] (setting [3]) stood at 0.00984 µM; in assay [2] (setting [3]), 0.114 µM.

As for `Nc1ncccc1-c1nc2ccc(-n3ccc(Oc4ccccn4)n3)nc2n1-c1ccc2c(c1)CC[C@@H]2NC1CCN(C(=O)C2CC2)CC1` [Compound 574], the IC50 in assay [1] (setting [4]) stood at 0.0524 µM; in assay [2] (setting [4]) it was 2.42 µM.

In the case of `Nc1ncccc1-c1nc2ccc(-n3cccn3)nc2n1-c1ccc2c(c1)CC[C@@H]2NC(=O)c1nccnc1C(F)F` [Compound 119], the IC50 in assay [1] (setting [3]) came out at 0.0908 µM; in assay [2] (setting [3]), 3.16 µM.

In the case of `Nc1ncccc1-c1nc2ccc(-n3cccn3)nc2n1-c1ccc2c(c1)CC[C@@H]2NC(=O)c1cccnc1-n1cccn1` [Compound 90], the IC50 in assay [1] (setting [3]) is 0.228 µM; in assay [2] (setting [3]) it was 5.85 µM.

Regarding `N[C@@H]1c2ccc(-n3c(-c4ccccc4F)nc4ccc(-n5ccc(N6CCOCC6)n5)nc43)cc2CC1F` (stereo partly drawn) [Compound 571], the values for the IC50 in assay [1] (setting [4]) and in assay [2] (setting [4]) were 0.00222 µM and 0.176 µM, respectively.

For `COc1cc(C(=O)N[C@H]2CCc3cc(-n4c(-c5cccnc5N)nc5ccc(-n6cccn6)nc54)ccc32)n(C)n1` [Compound 158], the figures for the IC50 in assay [1] (setting [3]) and in assay [2] (setting [3]) were 0.0135 µM and 0.124 µM, respectively.

For `Cc1cc(-n2cccn2)nc2c1nc(-c1cccnc1N)n2-c1ccc2c(c1)CC[C@@H]2NC(=O)c1ccc(C(F)F)nc1` [Compound 101], the values for the IC50 in assay [1] (setting [3]) and in assay [2] (setting [3]) were 0.0119 µM and 0.00802 µM, respectively.

On to `Cc1nncn1[C@H]1CCc2cc(-n3c(-c4cccnc4N)nc4ccc(-n5cccn5)nc43)ccc21` [Compound 217, (S)-3-(3-(1-(3-methyl-4H-1,2,4-triazol-4-yl)-2,3-dihydro-1H-inden-5-yl)-5-(1H-pyrazol-1-yl)-3H-imidazo[4,5-b]pyridin-2-yl)pyridin-2-amine], for which the IC50 is 0.0389 µM in assay [1] (setting [3]) and 0.328 µM in assay [2] (setting [3]).

As for `Nc1ncccc1-c1nc2ccc(-n3cccn3)nc2n1-c1ccc2c(c1)CC[C@@H]2NC(=O)c1ccc2c(c1)CC(=O)N2` [Compound 194], the IC50 in assay [1] (setting [3]) is 0.00937 µM; in assay [2] (setting [3]) it was 0.0395 µM.

Turning to `Cc1ncc(C(=O)N[C@H]2CCc3cc(-n4c(-c5cccnc5N)nc5ccc(-n6cccn6)nc54)ccc32)s1` [Compound 120], the figures for the IC50 in assay [1] (setting [3]) and in assay [2] (setting [3]) were 0.00561 µM and 0.103 µM, respectively.

For the molecule `Nc1ncccc1-c1nc2ccc(-n3ccc(OC4COC4)n3)nc2n1-c1ccc2c(c1)CC[C@@H]2NC1CCN(C(=O)C2CC2)CC1` [Compound 567], the values for the IC50 in assay [1] (setting [4]) and in assay [2] (setting [4]) were 0.0113 µM and 0.455 µM, respectively.

As for `COc1cc(C(=O)N[C@H]2CCc3cc(-n4c(-c5cccnc5N)nc5ccc(-n6cccn6)nc54)ccc32)cc(F)n1` [Compound 344], the IC50 amounted to 0.00797 µM in assay [1] (setting [3]) and 0.0196 µM in assay [2] (setting [3]).

Regarding `COc1ccn(-c2ccc3nc(-c4cccnc4N)n(-c4ccc5c(c4)CC[C@@H]5NC4CCN(C(=O)C5CC5)CC4F)c3n2)n1` (single isomer, unassigned) [Compound 514], the IC50 in assay [1] (setting [4]) was determined as 0.0264 µM; in assay [2] (setting [4]) it was 1.13 µM.

Turning to `Nc1ncccc1-c1nc2ccc(-n3cccn3)nc2n1-c1ccc2c(c1)CC[C@@H]2NC1CCN(C(=O)C2CC2(F)F)CC1` (stereo partly drawn) [Compound 433], the IC50 in assay [1] (setting [4]) was determined as 0.19 µM; in assay [2] (setting [4]), 3.53 µM.

`Nc1ncccc1-c1nc2ccc(-n3cccn3)nc2n1-c1ccc2c(c1)CC[C@@H]2NC(=O)c1cnc2ccnn2c1` [Compound 238]: the values for the IC50 in assay [1] (setting [3]) and in assay [2] (setting [3]) were 0.0091 µM and 0.0577 µM, respectively.

Consider `Nc1ncccc1-c1nc2ccc(-n3cccn3)nc2n1-c1ccc2c(c1)CC[C@@H]2NC(=O)[C@@H]1CCO1` [Compound 373], for which the IC50 in assay [1] (setting [3]) was 0.704 µM; in assay [2] (setting [3]) it was 9.91 µM.

As for `Nc1ncccc1-c1nc2ccc(-n3cccn3)nc2n1-c1ccc2c(c1)CC[C@@H]2NC(=O)c1ccc2ccnn2c1` [Compound 290], the IC50 in assay [1] (setting [3]) was 0.00383 µM; in assay [2] (setting [3]) it was 0.0189 µM.

For `Nc1ncccc1-c1nc2ccc(-n3cccn3)nc2n1-c1ccc2c(c1)CC[C@@H]2NC(=O)c1ccnc(OC2CC2)c1` [Compound 201], the IC50 in assay [1] (setting [3]) was 0.00927 µM; in assay [2] (setting [3]), 0.0665 µM.

Consider `Nc1ncccc1-c1nc2ccc(-n3cccn3)nc2n1-c1ccc2c(c1)CC[C@@H]2NC1CCc2cnccc2C1` (single isomer, unassigned) [Compound 463], for which the IC50 in assay [1] (setting [4]) stood at 0.027 µM; in assay [2] (setting [4]), 1.08 µM.

Consider `Nc1ncccc1-c1nc2ccc(-n3cccn3)nc2n1-c1ccc2c(c1)CC[C@@H]2n1cc(C2CNC2)nn1` [Compound 250], for which the IC50 in assay [1] (setting [3]) is greater than 1 µM; in assay [2] (setting [3]), greater than 10 µM.
